# Reference: patent US4710498A, “Pyridyloxy derivatives” (Ikeda Mohando Co., Ltd., priority 1984, dated 1987)
# Where two headings read alike, the source gives them in different places.
# Key:
# Mice = assay: Acute toxicity test on mice dosed orally; type: in vivo; conditions: orally, mice
# Procedure: (§1) Male ddy mice each having a body weight of about 22 g and which had not eaten for 8 hours were orally dosed with the test samples, and the general symptoms and fatalities were observed from the time immediately following the administration to 14 days after the administration.
# (§2) The median lethal dose (LD50) was calculated in accordance with the Litchfield and Wilcoxon Method.
# [1] = Acute toxicity test on mice dosed orally; type: in vivo; conditions: mouse, in vivo, po
# Procedure: as §1, §2
# [2] = test system: Gastric Acid Secretion Induced by Histamine; assay: Inhibition effect on gastric acid secretion induced by histamine in pylorus ligated rat (subcutaneous); type: in vivo, male Wistar rat; conditions: Rattus norvegicus; 0.2 mg/kg SC; histamine 3 mg/kg SC; average of five runs; read-out: Secretion of Gastric Acid in Rat, Inhibition Rate (%)
# Procedure: (§3) A male Wistar rat having a body weight of about 160 g and which had not fed for 24 hours was anesthetized by an intraperitoneal dose of 1.2 g/kg of urethane. After ligating of pylorus and esophagus, the gaster anterior was incised and fitting with a double polyethylene cannula. The wall of the stomach was rinsed with 5 ml of saline at 30 minutes intervals, and the quantity of gastric acid contained in each rinsing solution was measured by titration.
# The basal acid secretion was initially measured three times, and then 0.2 mg/kg of each of the compounds of this invention was administered subcutaneously and 3 mg/kg of histamine was administered subcutaneously after the lapse of an additional 30 minutes.
# (§4) The quantity of gastric acid secreted after the operation was measured continuously for 3 hours. Within that measurement interval, three time points at which the increase in acid secretion reached a maximum level were selected, and the average quantity of gastric acid secreted at those time points was taken as the increase in acid secretion, which was compared with the increase in acid secretion of the control group to calculate the percent inhibition for secretion of gastric acid (Table 1). [formula] (The result was shown as the average value of five runs.)
# Histamine H2 -Receptor = target: T1, Histamine H2 -Receptor (Cavia porcellus, UniProt P47747); assay: biochemical; set-up: species or system male Hartley guinea pig; conditions: negative logarithm of molar concentration; isolated guinea pig atrium; read-out: Antagonistic Action against Histamine H2 -Receptor (pA2) Determined by Using Atrium isolated from Guinea Pig (converted)
# T1 construct: from tissue; host or cells: isolated right atrium of male Hartley guinea pig
# T1 sequence (P47747 whole entry): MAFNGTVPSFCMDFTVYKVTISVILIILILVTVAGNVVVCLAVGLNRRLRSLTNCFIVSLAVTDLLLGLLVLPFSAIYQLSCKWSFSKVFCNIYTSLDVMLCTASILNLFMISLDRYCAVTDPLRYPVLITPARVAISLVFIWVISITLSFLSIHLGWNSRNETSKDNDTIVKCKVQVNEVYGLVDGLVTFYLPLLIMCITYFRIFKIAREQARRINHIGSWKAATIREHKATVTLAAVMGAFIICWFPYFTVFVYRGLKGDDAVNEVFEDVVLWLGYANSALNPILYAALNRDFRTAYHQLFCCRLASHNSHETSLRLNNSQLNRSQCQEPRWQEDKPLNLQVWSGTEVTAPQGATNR
# Procedure: A male Hartley guinea pig having a body weight of about 400 g was killed by cervical dislocation, and the atrium thereof was isolated and was suspended in an organ bath containing […] of a modified Ringer solution and subjected to a tension of 1 g. The number of heart beats under such condition was recorded using a polygraph.
# Initially, from 1×10^-7 mol to 3×10^-4 mol of histamine was allowed to act accumulatively to depict the curve of the dosage-reaction relationship. Likewise, the curve of the dosage of histamine-reaction relationship was depicted in the presence of 5×10^-7 mol to 1×10^-6 mol of the test sample which was injected 3 minutes before. The negative logarithm (pA2) of the molar concentration of the test sample required for moving the curve obtained by single administration of histamine parallel to the right side by a two-times concentration was calculated.
# [3] = test system: Gastric Acid Secretion Induced by Histamine; assay: Inhibitory effect of intraduodenally administered compounds on gastric acid secretion induced by histamine in rat; type: in vivo, male Wistar rat; conditions: for ED50: Rattus norvegicus, intraduodenal, 30 minutes before histamine SC, first series (Table 2-1), read-out: Median effective dose (ED50) inhibiting Gastric Acid Section (95% Reliability Limit); for Efficacy Ratio relative to Cimetidine (Cimetidine = 1): rat, in vivo
# Procedure: The test was conducted by an improved method based on that reported by Watanabe et al., in "Pharmacometrics", Vol. 3, No. (1), pages 7 to 14 (1969).
# as §3, §4
# [4] = P.O., 14 days observation, Litchfield and Wilcoxon Method, read-out: Median lethal dose (LD50)
smiles,measurement,setting,value
"O=c1nc(NC/C=C\COc2cc(CN3CCCCC3)ccn2)[nH]cc1Cc1cccnc1 [Ex. 22, 2-[4-<4-(1-piperidinomethyl)pyridyl-2-oxy>-cis-2-butenylamino]-5-(3-pyridylmethyl)-1H-pyrimidin-4-one]",acute toxicity / LD50 (in words),Mice,lower LD50 values than that of Cimetidine
same,LD50 at 336 h,[1]; [4],1600 mg/kg
same,inhibition in vivo at 0.2 mg/kg,[2],40%
same,Kb,Histamine H2 -Receptor,363 nM
"Cn1nc(N)nc1NC/C=C\COc1cc(CN2CCCCC2)ccn1 [Ex. 19, 3-amino-1-methyl-5-[4-<4-(1-piperidinomethyl)pyridyl-2-oxy>-cis-2-butenylamino]-1H-1,2,4-triazole]",LD50 at 336 h,[1]; [4],> 1500 mg/kg
same,inhibition in vivo at 0.2 mg/kg,[2],3%
same,Kb,Histamine H2 -Receptor,759 nM
"CN(C)Cc1ccnc(OC/C=C\CNc2n[s+]([O-])nc2N)c1 (stereo not drawn) [Ex. 11, 3-amino-4-<4-(4-dimethylaminomethylpyridyl-2-oxy)-cis-2-butenylamino>-1,2,5-thiadiazole-1-oxide]",LD50 at 336 h,[1]; [4],> 1500 mg/kg
same,inhibition in vivo at 0.2 mg/kg,[2],101%
same,Kb,Histamine H2 -Receptor,490 nM
"Nc1n[nH]c(=O)nc1NC/C=C\COc1cc(CN2CCCCC2)ccn1 [Ex. 27, 6-amino-5-[4-<4-(1-piperidinomethyl)pyridyl-2-oxy>-cis-2-butenylamino]-1,2,4-triazin-3-one]",LD50 at 336 h,[1]; [4],> 1500 mg/kg
same,inhibition in vivo at 0.2 mg/kg,[2],88%
same,Kb,Histamine H2 -Receptor,275 nM
"CNc1n[s+]([O-])nc1NC/C=C\COc1cc(CN(C)C)ccn1 (stereo not drawn) [Ex. 12, 3-methylamino-4-<4-(4-dimethylaminomethylpyridyl-2-oxy)-cis-2-butenylamino>-1,2,5-thiadiazole-1-oxide]",LD50 at 336 h,[1]; [4],> 1500 mg/kg
same,inhibition in vivo at 0.2 mg/kg,[2],91%
same,Kb,Histamine H2 -Receptor,263 nM
"Nc1c(NC/C=C\COc2cc(CN3CCCCC3)ccn2)c(=O)c1=O [Ex. 1, 1-amino-2-[4-<4-(1-piperidinomethyl)pyridyl-2-oxy>-cis-2-butenylamino]-1-cyclobuten-3,4-dione]",LD50 at 336 h,[1],> 1500 mg/kg
same,inhibition in vivo at 0.2 mg/kg,[2],54%
same,Kb,Histamine H2 -Receptor,339 nM
same,ED50,[3],0.15 mg/kg
"Nc1n[s+]([O-])nc1NC/C=C/COc1cc(CN2CCCCC2)ccn1 (stereo not drawn) [Ex. 9, 3-amino-4-[4-<4-(1-piperidinomethyl)pyridyl-2-oxy>-trans-2-butenylamino]-1,2,5-thiadiazole-1-oxide]",LD50 at 336 h,[1]; [4],> 1500 mg/kg
same,inhibition in vivo at 0.2 mg/kg,[2],62%
same,Kb,Histamine H2 -Receptor,339 nM
same,ED50,[3],0.46 mg/kg
same,Efficacy Ratio relative to Cimetidine (Cimetidine = 1),[3],15.2
"Cn1nc(N)c(NC/C=C\COc2cc(CN3CCCCC3)ccn2)nc1=O [Ex. 29, 6-amino-2-methyl-5-[4-<4-(1-piperidinomethyl)pyridyl-2-oxy>-cis-2-butenylamino]-1,2,4-triazin-3-one]",acute toxicity / LD50 (in words),Mice,lower LD50 values than that of Cimetidine
same,LD50 at 336 h,[1]; [4],1250 mg/kg
same,inhibition in vivo at 0.2 mg/kg,[2],74%
same,Kb,Histamine H2 -Receptor,708 nM
"CNc1c(NC/C=C\COc2cc(CN3CCCCC3)ccn2)c(=O)c1=O [Ex. 2, 1-methylamino-2-[4-<4-(1-piperidinomethyl)pyridyl-2-oxy>-cis-2-butenylamino]-1-cyclobuten-3,4-dione]",LD50 at 336 h,[1]; [4],> 1500 mg/kg
same,inhibition in vivo at 0.2 mg/kg,[2],60%
same,Kb,Histamine H2 -Receptor,174 nM
same,ED50,[3],0.27 mg/kg
same,Efficacy Ratio relative to Cimetidine (Cimetidine = 1),[3],25.9
